In publication PMC11627468, “Novel enzyme‐resistant pancreatic polypeptide analogs evoke pancreatic beta‐cell rest, enhance islet cell turnover, and inhibit food intake in mice” (Biofactors (Oxford, England), 2024):

Assays:
BRIN‐BD11 beta‐cells [1] = assay: In vitro insulin secretion from BRIN‐BD11 beta‐cells; format: cell-based; details: 20 min, insulin radioimmunoassay, n = 8
Procedure: Effects of the PP and related peptides on insulin secretion were examined in pancreatic BRIN‐BD11 beta‐cells. The secretory characteristics of this cell line have been described in detail previously.[22] Cells were cultured in RPMI 1640 media (Gibco Life Technologies Ltd), with a glucose concentration of 11.1 mM and supplemented with 10% v/v fetal bovine serum (Gibco), 1% v/v antibiotics (0.1 mg/mL streptomycin and 100 U/mL penicillin) at 37°C in 5% atmospheric CO2. For experimentation, cells were seeded into 24‐well plates (Falcon Ltd) at a density of 150,000 cells per well. Following overnight attachment, media was aspirated, and cells were preincubated in 1.1 mM glucose KRB buffer for 40 min. Following preincubation, the 1.1 mM glucose solution was removed and 1 mL of KRB test solution, containing 16.7 mM glucose with PP peptides (10^−12 to 10^−6 M) was added for 20 min. In a separate series, PP peptides were also incubated in the presence of alanine (10 mM) at 16.7 mM glucose to further investigate the effects on insulin secretion. For all experiments, following a 20 min incubation period, the supernatant was collected and stored at −20°C until insulin concentration determination using a dextran‐coated charcoal insulin radioimmunoassay.[23]

BRIN‐BD11 beta‐cells [2] = assay: Beta‐cell proliferation (Ki‐67 staining); format: cell-based; details: peptide 10^−6 M, versus control cultures, n = 3
Procedure: (§1) To assess the effects of PP and related peptides (10^−8 and 10^−6 M) on beta‐cell proliferation and apoptosis, BRIN‐BD11 beta‐cells were seeded onto sterilized, clear‐glass coverslips (16 mm diameter) and placed in 12‐well plates (Falcon Ltd) at a density of 40,000 cells per well and cultured for 18 h. Media control (11.1 mM glucose), GLP‐1 (10^−8 and 10^−6 M), and a cytokine cocktail mix (IL‐1β [100 U/mL], IFNγ [20 U/mL], TNFα [200 U/mL], Sigma Aldrich, UK) were employed as controls, as appropriate. Cells were then rinsed with PBS and fixed using 4% paraformaldehyde. After antigen retrieval with sodium citrate buffer at 95°C for 20 min, blocking was performed using 2% bovine serum albumin (BSA) for 45 min. For proliferation studies, the slips were then incubated at 37°C with rabbit anti‐Ki‐67 primary antibody (Abcam, ab15580), and subsequently with Alexa Fluor® 488 secondary antibody. Coverslips were mounted onto polylysine‐coated microscope slides using a 50:50 glycerol:PBS solution and stored at 4°C until required for analysis. To assess the ability of PP peptides to protect against cytokine‐induced apoptosis, cells were seeded, washed, and fixed as above, with the exception that the media was supplemented with the cytokine mix. The slips were then incubated at 37°C with TUNEL reaction mix for 60 min (Roche Diagnostics, Germany), and mounted onto microscope slides. To assess receptor specificity, co‐incubation of PP peptides with the well characterized NPY4R antagonist, (S)‐VU0637120,[24] at 10^−5 M was employed for beta‐cell proliferation experiments, conducted as detailed above. All slides were viewed using a fluorescent microscope (Olympus System Microscope, model BX51; Southend‐on‐Sea, UK) and photographed by DP70 camera adapter system. Proliferation/TUNEL positive frequency was determined using the cell‐counter function on ImageJ Software and expressed as % of total cells analyzed.

NPY4R = biological target: T1, NPY4R (Rattus norvegicus, UniProt Q63447); assay: Receptor specificity: beta‐cell proliferation with NPY4R antagonist (S)‐VU0637120; format: cell-based; details: peptide 10^−6 M co‐incubated with NPY4R antagonist (S)‐VU0637120 10^−5 M; Ki‐67; n = 3
T1 construct: endogenous in cells; host or cells: BRIN-BD11 beta cells
Procedure: as §1, with “The slips were then incubated at 37°C with TUNEL reaction mix for 60 min (Roche Diagnostics, Germany), and mounted onto microscope slides. To assess receptor specificity, co‐incubation of PP peptides with the well characterized NPY4R antagonist, (S)‐VU0637120,[24] at 10^−5 M was employed for beta‐cell proliferation experiments, conducted as detailed above. All slides were viewed using a fluorescent microscope (Olympus System Microscope, model BX51; Southend‐on‐Sea, UK) and photographed by DP70 camera adapter system.” left out

C57BL/6 mice = assay: Glucose tolerance in mice; format: in vivo; details: peptide 25 nmol/kg i.p. conjointly with glucose 18 mmol/kg, overnight fasted mice; n = 6
Procedure: Acute in vivo studies were conducted in groups (n = 6) of 4‐month‐old male C57BL/6 mice (Envigo, Huntington, UK). All mice were maintained on standard rodent chow (10% fat, 30% protein, and 60% carbohydrate; Trouw Nutrition, Northwich, UK), and drinking water provided ad libitum. Mice were housed individually and kept in a temperature‐controlled environment (22 ± 2°C), with a 12‐h light/dark cycle. Experiments were carried out in accordance with the UK Animal Scientific Procedures Act 1986 as well as being approved by Ulster University Animal Ethics Review Committee (AWERB) committee and protected by the UK Home Office Animal project license number PPL2902, approved on April 26, 2021. Acute effects of test peptides on food intake were tested in overnight (16 h) fasted mice. Briefly, fasted mice were administered an intraperitoneal (i.p.) injection of saline vehicle (0.9% (w/v) NaCl) alone or in combination with test peptides (each at 25, 75, or 200 nmol/kg bw) and cumulative food intake measured at regular intervals, to assess the pharmacodynamic profile of the test peptides. For food intake studies, mice were provided with preweighed rodent maintenance diet in their food hopper at t = 0 min, which was then re‐weighed at each timepoint with all due care taken to account for any wastage or crumbling of the food pellets. In this regard, the investigator was present at all times during the 180‐min test period to ensure accuracy and consistency in all measurements. Furthermore, effects of PP or related peptides (25 nmol/kg bw) on glucose homeostasis and insulin secretion were evaluated in overnight fasted mice following i.p. injection of glucose alone (18 mmol/kg bw) or in combination with PP peptides (each at 25 nmol/kg bw). […] Blood glucose was measured immediately using a hand‐held Ascencia Contour blood glucose meter (Bayer Healthcare, Newbury, Berkshire, UK). […]

[3] = in vivo; cited from earlier work
Procedure: Despite these prominent therapeutically exploitable advantages, clinical utilization of native PP as a positive NPY4R modulator is limited by a short circulatory half‐life of less than 7 min.[17] This appears to be due to rapid cleavage of the N‐terminal dipeptide, Ala^1‐Pro^2, from PP by the ubiquitous enzyme dipeptidyl peptidase‐4 (DPP‐4).[18] […] As such, DPP‐4 resistant PP mole ...

T1 sequence (Q63447 whole entry): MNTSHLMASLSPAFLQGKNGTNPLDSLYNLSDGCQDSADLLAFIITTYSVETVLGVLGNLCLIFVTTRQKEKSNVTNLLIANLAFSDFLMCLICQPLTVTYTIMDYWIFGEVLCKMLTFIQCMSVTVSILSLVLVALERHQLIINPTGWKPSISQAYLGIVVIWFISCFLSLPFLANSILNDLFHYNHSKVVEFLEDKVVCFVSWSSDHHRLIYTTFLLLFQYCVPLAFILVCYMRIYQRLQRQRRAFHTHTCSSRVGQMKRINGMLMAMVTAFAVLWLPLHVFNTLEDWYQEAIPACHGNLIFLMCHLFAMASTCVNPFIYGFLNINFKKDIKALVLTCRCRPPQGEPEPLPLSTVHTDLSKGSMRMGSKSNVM

For `CC[C@H](C)[C@H](NC(=O)[C@H](Cc1ccc(O)cc1)NC(=O)[C@H](CCCNC(=N)N)NC(=O)[C@H](CCCNC(=N)N)NC(=O)[C@H](CC(C)C)NC(=O)[C@H](CC(=O)O)NC(=O)[C@H](C)NC(=O)[C@H](C)NC(=O)[C@H](Cc1ccc(O)cc1)NC(=O)[C@H](CCC(N)=O)NC(=O)[C@H](C)NC(=O)[C@H](CCSC)NC(=O)[C@H](CCC(N)=O)NC(=O)[C@H](CCC(=O)O)NC(=O)[C@@H]1CCCN1C(=O)[C@@H](NC(=O)[C@H](C)NC(=O)[C@H](CC(N)=O)NC(=O)[C@H](CC(=O)O)NC(=O)CNC(=O)[C@@H]1CCCN1C(=O)[C@H](Cc1ccc(O)cc1)NC(=O)[C@@H](NC(=O)[C@@H]1CCCN1C(=O)[C@H](CCC(=O)O)NC(=O)[C@H](CC(C)C)NC(=O)[C@@H]1CCCN1C(=O)[C@H](C)N)C(C)C)[C@@H](C)O)C(=O)N[C@@H](CC(N)=O)C(=O)N[C@@H](CCSC)C(=O)N[C@@H](CC(C)C)C(=O)N[C@H](C(=O)N[C@@H](CCCNC(=N)N)C(=O)N1CCC[C@H]1C(=O)N[C@@H](CCCNC(=N)N)C(=O)N[C@@H](Cc1ccc(O)cc1)C(N)=O)[C@@H](C)O` [PP, Pancreatic polypeptide], the “insulin secretion at 16.7 mM glucose” value (BRIN‐BD11 beta‐cells [1]; peptide 10^−6 M) was “slight inhibitory effect”, the “insulin secretion at 16.7 mM glucose” value (BRIN‐BD11 beta‐cells [1]; peptides 10^−12 to 10^−7 M) was “no discernible impact” and the “BRIN‐BD11 cell proliferation” value (BRIN‐BD11 beta‐cells [2]) was “significantly (p < 0.001) enhanced”. For the same molecule, the “dependence of beta‐cell proliferative benefit on NPY4R signaling” value (NPY4R) was “dependent on NPY4R signaling”, the “glucose homeostasis (blood glucose)” value (C57BL/6 mice) was “Neither native PP, nor related PP analogs, exerted any effect” and the “circulatory half‐life” value [3] was “less than 7 min”.
